Experimental data from paper PMC6979384, “Characterization of the plant homeodomain (PHD) reader family for their histone tail interactions” (Epigenetics & Chromatin, 2020).
Entries after “also recorded” stand apart in the source; their conditions may differ.

Key:
Assay in all cases: Histone peptide microarray
Format in all cases: binding, human
[1] = test system: PHF21A; conditions: GST-tagged PHF21A; sheet Array Heatmap; each array performed twice, total n = 4
Method in brief: (§1)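 Steps: express and purify GST-tagged PHD reader; incubate 0.5 μM protein on a peptide microarray (293 histone peptides, single or combined PTMs) following an optimized protocol; average signal across 4 replicates.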

[2] = test system: PHF8; conditions: GST-tagged PHF8; sheet Array Heatmap; each array performed twice, total n = 4
Method in brief: as §1

[3] = test system: BPTF (PB); conditions: GST-tagged BPTF (PB = PHD + Bromodomain); sheet Array Heatmap; each array performed twice, total n = 4
Method in brief: as §1

[4] = test system: KDM5B (1); conditions: GST-tagged KDM5B (1); sheet Array Heatmap; each array performed twice, total n = 4
Method in brief: as §1

[5] = test system: BAZ2B; conditions: GST-tagged BAZ2B; sheet Array Heatmap; each array performed twice, total n = 4
Method in brief: as §1

[6] = test system: TAF3; conditions: GST-tagged TAF3; sheet Array Heatmap; each array performed twice, total n = 4
Method in brief: as §1

[7] = test system: KDM4C (TTP); conditions: GST-tagged KDM4C (TTP = Tandem Tudor domain + PHD); sheet Array Heatmap; each array performed twice, total n = 4
Method in brief: as §1

[8] = test system: CHD5 (PCC); conditions: GST-tagged CHD5 (PCC = PHD + Dual Chromodomain); sheet Array Heatmap; each array performed twice, total n = 4
Method in brief: as §1

[9] = test system: ING5; conditions: GST-tagged ING5; sheet Array Heatmap; each array performed twice, total n = 4
Method in brief: as §1

[10] = test system: MORC3 (CW); conditions: GST-tagged MORC3 (CW = CW-type Zn-finger); sheet Array Heatmap; each array performed twice, total n = 4
Method in brief: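 Each reader, produced as a GST fusion and purified, was tested at 0.5 μM on synthetic histone peptides (293 in total) carrying single or combinatorial marks. Intensities averaged over four replicates.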

[11] = test system: DPF2 (PPC2W2); conditions: GST-tagged DPF2 (PPC2W2 = Dual PHD + C2W2-type Zn-finger); sheet Array Heatmap; each array performed twice, total n = 4
Method in brief: as §1

[12] = test system: KDM5A (1); conditions: GST-tagged KDM5A (1); sheet Array Heatmap; each array performed twice, total n = 4
Method in brief: as §1

[13] = test system: MLL5; conditions: for Array Heatmap signal (histone peptide microarray): GST-tagged MLL5, sheet Array Heatmap, each array performed twice, total n = 4
Method in brief: as §1

[14] = test system: SP140L; conditions: GST-tagged SP140L; sheet Array Heatmap; each array performed twice, total n = 4
Method in brief: as §1

[15] = test system: DIDO1; conditions: GST-tagged DIDO1; sheet Array Heatmap; each array performed twice, total n = 4
Method in brief: as §1

[16] = test system: ING1; conditions: GST-tagged ING1; sheet Array Heatmap; each array performed twice, total n = 4
Method in brief: as §1

[17] = test system: PHF2; conditions: GST-tagged PHF2; sheet Array Heatmap; each array performed twice, total n = 4
Method in brief: as §1

[18] = test system: PHF23; conditions: GST-tagged PHF23; sheet Array Heatmap; each array performed twice, total n = 4
Method in brief: as §1

[19] = test system: PHRF1 (RP); conditions: for Array Heatmap signal (histone peptide microarray): GST-tagged PHRF1 (RP), sheet Array Heatmap, each array performed twice, total n = 4
Method in brief: as §1

[20] = test system: ING3; conditions: GST-tagged ING3; sheet Array Heatmap; each array performed twice, total n = 4
Method in brief: as §1

[21] = test system: ING4; conditions: GST-tagged ING4; sheet Array Heatmap; each array performed twice, total n = 4
Method in brief: as §1

[22] = test system: PHF13; conditions: GST-tagged PHF13; sheet Array Heatmap; each array performed twice, total n = 4
Method in brief: as §1

[23] = test system: AIRE (PP); conditions: GST-tagged AIRE (PP); sheet Array Heatmap; each array performed twice, total n = 4
Method in brief: as §1

[24] = test system: RAG2; conditions: GST-tagged RAG2; sheet Array Heatmap; each array performed twice, total n = 4
Method in brief: as §1

[25] = test system: ING2; conditions: GST-tagged ING2; sheet Array Heatmap; each array performed twice, total n = 4
Method in brief: as §1

[26] = test system: KDM7A; conditions: GST-tagged KDM7A; sheet Array Heatmap; each array performed twice, total n = 4
Method in brief: as §1

[27] = test system: KDM5B (3); conditions: for Array Heatmap signal (histone peptide microarray): GST-tagged KDM5B (3), sheet Array Heatmap, each array performed twice, total n = 4
Method in brief: as §1

H3 (1-20): unmodified H3 N-terminal peptide (1–20)
Array Heatmap signal (histone peptide microarray) [1]: 0.4449
Array Heatmap signal (histone peptide microarray) [2]: 0.3331
Array Heatmap signal (histone peptide microarray) [3]: 0.3262
Array Heatmap signal (histone peptide microarray) [4]: 0.6198
Array Heatmap signal (histone peptide microarray) [5]: 0.438
Array Heatmap signal (histone peptide microarray) [6]: 0.2842
Array Heatmap signal (histone peptide microarray) [7]: 0.431
Array Heatmap signal (histone peptide microarray) [8]: 0.7444
Array Heatmap signal (histone peptide microarray) [9]: 0.3305
Array Heatmap signal (histone peptide microarray) [10]: 0.4267
Array Heatmap signal (histone peptide microarray) [11]: 0.6767
Array Heatmap signal (histone peptide microarray) [12]: 0.4331
Array Heatmap signal (histone peptide microarray) [13]: 0.5452
Array Heatmap signal (histone peptide microarray) [14]: 0.461
Array Heatmap signal (histone peptide microarray) [15]: 0.7104
Array Heatmap signal (histone peptide microarray) [16]: 0.542
Array Heatmap signal (histone peptide microarray) [17]: 0.5688
Array Heatmap signal (histone peptide microarray) [18]: 0.5836
Array Heatmap signal (histone peptide microarray) [19]: 0.67
binding preference ([19]; peptide microarray, reader 0.5 μM, n = 4, listed as H3K4me0): strong preference for H3K4me0; also recorded: specifically bound H3K4me0 over K4me
Array Heatmap signal (histone peptide microarray) [20]: 0.4575
Array Heatmap signal (histone peptide microarray) [21]: 0.425
Array Heatmap signal (histone peptide microarray) [22]: 0.5761
Array Heatmap signal (histone peptide microarray) [23]: 0.4007
Array Heatmap signal (histone peptide microarray) [24]: 0.2786
Array Heatmap signal (histone peptide microarray) [25]: 0.5908
Array Heatmap signal (histone peptide microarray) [26]: 0.3004
Array Heatmap signal (histone peptide microarray) [27]: 0.5464

H3K4me1: H3 1-20 [Peptide H3K4me1]
Array Heatmap signal (histone peptide microarray) [1]: 0.4917
Array Heatmap signal (histone peptide microarray) [2]: 0.3997
Array Heatmap signal (histone peptide microarray) [3]: 0.3638
Array Heatmap signal (histone peptide microarray) [4]: 0.6949
Array Heatmap signal (histone peptide microarray) [5]: 0.4995
Array Heatmap signal (histone peptide microarray) [6]: 0.2998
Array Heatmap signal (histone peptide microarray) [7]: 0.5341
Array Heatmap signal (histone peptide microarray) [8]: 0.8603
Array Heatmap signal (histone peptide microarray) [9]: 0.3865
Array Heatmap signal (histone peptide microarray) [10]: 0.5834
Array Heatmap signal (histone peptide microarray) [11]: 0.7192
Array Heatmap signal (histone peptide microarray) [12]: 0.4924
Array Heatmap signal (histone peptide microarray) [13]: 0.5428
Array Heatmap signal (histone peptide microarray) [14]: 0.3684
Array Heatmap signal (histone peptide microarray) [15]: 0.6429
Array Heatmap signal (histone peptide microarray) [16]: 0.551
Array Heatmap signal (histone peptide microarray) [17]: 0.5242
Array Heatmap signal (histone peptide microarray) [18]: 0.579
Array Heatmap signal (histone peptide microarray) [19]: 0.6701
Array Heatmap signal (histone peptide microarray) [20]: 0.5265
Array Heatmap signal (histone peptide microarray) [21]: 0.4885
Array Heatmap signal (histone peptide microarray) [22]: 0.6545
Array Heatmap signal (histone peptide microarray) [23]: 0.5018
Array Heatmap signal (histone peptide microarray) [24]: 0.3065
Array Heatmap signal (histone peptide microarray) [25]: 0.606
Array Heatmap signal (histone peptide microarray) [26]: 0.37
Array Heatmap signal (histone peptide microarray) [27]: 0.6104

H3K4me2: H3 1-20 [Peptide H3K4me2]
Array Heatmap signal (histone peptide microarray) [1]: 0.4967
Array Heatmap signal (histone peptide microarray) [2]: 0.5074
Array Heatmap signal (histone peptide microarray) [3]: 0.3788
Array Heatmap signal (histone peptide microarray) [4]: 0.6566
Array Heatmap signal (histone peptide microarray) [5]: 0.5231
Array Heatmap signal (histone peptide microarray) [6]: 0.3841
Array Heatmap signal (histone peptide microarray) [7]: 0.5984
Array Heatmap signal (histone peptide microarray) [8]: 0.8359
Array Heatmap signal (histone peptide microarray) [9]: 0.3985
Array Heatmap signal (histone peptide microarray) [10]: 0.6297
Array Heatmap signal (histone peptide microarray) [11]: 0.7084
Array Heatmap signal (histone peptide microarray) [12]: 0.5028
Array Heatmap signal (histone peptide microarray) [13]: 0.5972
Array Heatmap signal (histone peptide microarray) [14]: 0.3615
Array Heatmap signal (histone peptide microarray) [15]: 0.6829
Array Heatmap signal (histone peptide microarray) [16]: 0.601
Array Heatmap signal (histone peptide microarray) [17]: 0.5474
Array Heatmap signal (histone peptide microarray) [18]: 0.6135
Array Heatmap signal (histone peptide microarray) [19]: 0.5228
Array Heatmap signal (histone peptide microarray) [20]: 0.5315
Array Heatmap signal (histone peptide microarray) [21]: 0.5223
Array Heatmap signal (histone peptide microarray) [22]: 0.6844
Array Heatmap signal (histone peptide microarray) [23]: 0.5318
Array Heatmap signal (histone peptide microarray) [24]: 0.3888
Array Heatmap signal (histone peptide microarray) [25]: 0.6539
Array Heatmap signal (histone peptide microarray) [26]: 0.5271
Array Heatmap signal (histone peptide microarray) [27]: 0.6323

H3K4me3: H3 1-20 [Peptide H3K4me3]
Array Heatmap signal (histone peptide microarray) [1]: 0.4238
Array Heatmap signal (histone peptide microarray) [2]: 0.4526
Array Heatmap signal (histone peptide microarray) [3]: 0.3538
Array Heatmap signal (histone peptide microarray) [4]: 0.5666
Array Heatmap signal (histone peptide microarray) [5]: 0.4249
Array Heatmap signal (histone peptide microarray) [6]: 0.3678
Array Heatmap signal (histone peptide microarray) [7]: 0.4579
Array Heatmap signal (histone peptide microarray) [8]: 0.6826
Array Heatmap signal (histone peptide microarray) [9]: 0.3493
Array Heatmap signal (histone peptide microarray) [10]: 0.5878
Array Heatmap signal (histone peptide microarray) [11]: 0.5958
Array Heatmap signal (histone peptide microarray) [12]: 0.4187
Array Heatmap signal (histone peptide microarray) [13]: 0.668
binding preference ([13]; peptide microarray, reader 0.5 μM, n = 4): strong preference for H3K4me3 over the un-, mono-, or di-methylated H3K4 peptides; also recorded: specific reader for H3K4me3
Array Heatmap signal (histone peptide microarray) [14]: 0.3018
Array Heatmap signal (histone peptide microarray) [15]: 0.7775
Array Heatmap signal (histone peptide microarray) [16]: 0.6386
Array Heatmap signal (histone peptide microarray) [17]: 0.8051
Array Heatmap signal (histone peptide microarray) [18]: 0.678
Array Heatmap signal (histone peptide microarray) [19]: 0.4656
Array Heatmap signal (histone peptide microarray) [20]: 0.4876
Array Heatmap signal (histone peptide microarray) [21]: 0.4513
Array Heatmap signal (histone peptide microarray) [22]: 0.5859
Array Heatmap signal (histone peptide microarray) [23]: 0.3854
Array Heatmap signal (histone peptide microarray) [24]: 0.3757
Array Heatmap signal (histone peptide microarray) [25]: 0.6884
Array Heatmap signal (histone peptide microarray) [26]: 0.3234
Array Heatmap signal (histone peptide microarray) [27]: 0.4784
binding preference ([27]; peptide microarray, reader 0.5 μM, n = 4, comparison between K9ac + K18ac peptides): showed such a preference on peptide microarrays
